The values that follow come from PubChem BioAssay AID248 (DTP/NCI, 2004).

“And” between values parts separate entries of the source, which are not always exact repeats. Identical values can stand only once. Inconclusive results and toxic doses are left out.

In this experiment the test system is L1210 leukemia ip in BDF1 mice, survival T/C. As to the kind of experiment: NCI In Vivo Anticancer Drug Screen. Data for tumor model L1210 Leukemia (intraperitoneal) in B6D2F1 (BDF1) mice. To be noted: endpoint: mean survival time, higher = longer survival. The essentials: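 Read-out is survival time, reported as the treated-group measurement over the vehicle-control measurement.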

Setting [1] is: dose: 50.0 mg/kg/injection, schedule: Q01DX001 (ip), vehicle: saline.
Setting [2] is: dose: 100.0 mg/kg/injection, schedule: Q01DX001 (ip), vehicle: saline.
Setting [3] is: dose: 200.0 mg/kg/injection, schedule: Q01DX001 (ip), vehicle: saline.
[4] abbreviates: dose: 400.0 mg/kg/injection, schedule: Q01DX001 (ip), vehicle: saline.
The mark [5] stands for this setting: dose: 100.0 mg/kg/injection, schedule: Q01DX001 (ip), vehicle: Klucel (hydroxypropylcellulose) (HPC).
Setting [6] is: dose: 100.0 mg/kg/injection, schedule: Q04DX003 (ip), vehicle: Klucel (hydroxypropylcellulose) (HPC).
The mark [7] stands for this setting: dose: 200.0 mg/kg/injection, schedule: Q01DX001 (ip), vehicle: Klucel (hydroxypropylcellulose) (HPC).
Setting [8] is: dose: 200.0 mg/kg/injection, schedule: Q04DX003 (ip), vehicle: Klucel (hydroxypropylcellulose) (HPC).
The mark [9] stands for this setting: dose: 400.0 mg/kg/injection, schedule: Q01DX001 (ip), vehicle: Klucel (hydroxypropylcellulose) (HPC).
Where [10] appears, read: dose: 400.0 mg/kg/injection, schedule: Q04DX003 (ip), vehicle: Klucel (hydroxypropylcellulose) (HPC).
The mark [11] stands for this setting: dose: 100.0 mg/kg/injection, schedule: Q04DX003 (ip), vehicle: saline.
The mark [12] stands for this setting: dose: 200.0 mg/kg/injection, schedule: Q04DX003 (ip), vehicle: saline.
The mark [13] stands for this setting: dose: 400.0 mg/kg/injection, schedule: Q04DX003 (ip), vehicle: saline.

Consider `COC1(C#N)C(=O)c2ccccc2C1=O`, for which the T/C by setting is: (dose: 100.0 mg/kg/injection, schedule: Q01DX001 (ip), vehicle: saline with Tween-80) 97 % of control; (dose: 200.0 mg/kg/injection, schedule: Q01DX001 (ip), vehicle: saline with Tween-80) 108 % of control; (dose: 400.0 mg/kg/injection, schedule: Q01DX001 (ip), vehicle: saline with Tween-80) 94 % of control.
Consider `Oc1cccnc1I`, for which the T/C by setting is: under setting [1], 102 % of control; under setting [2], 98 % of control; under setting [3], 98 % of control; under setting [4], 102 % of control.
As to `Cc1cc2nc3c(=O)[nH]c(=O)nc-3n(CCOC(=O)CCC(=O)O)c2cc1C`, the T/C is 116 % of control under setting [1], 103 % of control under setting [2], 114 % of control under setting [3] and 103 % of control under setting [4].
Turning to `Cc1ccc(C(C)(C#N)Nc2ccccc2)cc1` (stereo unspecified), the T/C under setting [5] was 88 % of control; the T/C under setting [6] was 105 % of control; the T/C under setting [7] was 91 % of control; the T/C under setting [8] was 95 % of control; the T/C under setting [9] was 92 % of control; the T/C under setting [10] was 105 % of control.
In the case of `CN(N=O)C(=O)NC(N)=O`, the T/C was 110 % of control (dose: 1.5 mg/kg/injection, schedule: Q01DX009 (ip), vehicle: saline); 115 % of control (dose: 1.87 mg/kg/injection, schedule: Q01DX Z (ip), vehicle: carboxymethylcellulose (CMC)); 188 % of control (dose: 10.0 mg/kg/injection, schedule: Q01DX Z (ip), vehicle: carboxymethylcellulose (CMC)); 177 % of control (dose: 15.0 mg/kg/injection, schedule: Q01DX Z (ip), vehicle: carboxymethylcellulose (CMC)); 110 % of control (dose: 30.0 mg/kg/injection, schedule: Q01DX Z (ip), vehicle: carboxymethylcellulose (CMC)); 91 % of control (dose: 40.0 mg/kg/injection, schedule: Q01DX Z (ip), vehicle: carboxymethylcellulose (CMC)). Moreover, the T/C was 122 % of control (dose: 50.0 mg/kg/injection, schedule: Q01DX Z (ip), vehicle: saline); 112 % of control (dose: 75.0 mg/kg/injection, schedule: Q01DX Z (ip), vehicle: saline); 92 % of control (dose: 100.0 mg/kg/injection, schedule: Q01DX Z (ip), vehicle: saline).
`CCOC(=O)C(Br)C(Br)c1cccc([N+](=O)[O-])c1` (stereo unspecified): the T/C is, setting by setting: (dose: 100.0 mg/kg/injection, schedule: Q01DX009 (ip), vehicle: other) 105 % of control; (dose: 100.0 mg/kg/injection, schedule: Q04DX003 (ip), vehicle: other) 106 % of control; (dose: 200.0 mg/kg/injection, schedule: Q04DX003 (ip), vehicle: other) 94 % of control; (dose: 400.0 mg/kg/injection, schedule: Q04DX003 (ip), vehicle: other) 86 % of control.
On to `NC(=O)OCC(COC(N)=O)(c1ccccc1)c1ccccc1`, for which the T/C by setting is: (dose: 45.0 mg/kg/injection, schedule: Q01DX001 (ip), vehicle: saline) 101 % of control; (dose: 67.0 mg/kg/injection, schedule: Q01DX001 (ip), vehicle: saline) 95 % of control and 101 % of control; under setting [2], 98 % of control; (dose: 150.0 mg/kg/injection, schedule: Q01DX001 (ip), vehicle: saline) 95 % of control and 104 % of control.
As to `CCCCCCCCCCCCCCCCNC(=S)NCCCCCCCCCCCCCCCC`, the T/C is 93 % of control (dose: 25.0 mg/kg/injection, schedule: Q04DX002 (ip), vehicle: Klucel (hydroxypropylcellulose) (HPC)); 90 % of control (dose: 50.0 mg/kg/injection, schedule: Q04DX002 (ip), vehicle: Klucel (hydroxypropylcellulose) (HPC)); 102 % of control (dose: 100.0 mg/kg/injection, schedule: Q04DX002 (ip), vehicle: Klucel (hydroxypropylcellulose) (HPC)); 95 % of control under setting [6]; 101 % of control under setting [8]; 88 % of control under setting [10].
On to `CC1(C)OCC(C2OC3OC(C)(C)OC3C2OS(C)(=O)=O)O1` (stereo unspecified), for which the T/C is 101 % of control (dose: 100.0 mg/kg/injection, schedule: Q01DX001 (ip), vehicle: carboxymethylcellulose (CMC)); 103 % of control (dose: 200.0 mg/kg/injection, schedule: Q01DX001 (ip), vehicle: carboxymethylcellulose (CMC)); 97 % of control (dose: 400.0 mg/kg/injection, schedule: Q01DX001 (ip), vehicle: carboxymethylcellulose (CMC)).
For `C/C=C/CC/C(=N\Nc1ccc([N+](=O)[O-])cc1[N+](=O)[O-])c1ccccc1`, the T/C is 96 % of control under setting [5], 96 % of control under setting [7] and 100 % of control under setting [9].
As to `C=CCN=C(N)C(N)=NCC=C`, the T/C is 96 % of control under setting [11], 101 % of control under setting [12] and 103 % of control under setting [13].
In the case of `Cn1c(O)c(N=NC(N)=S)c2ccccc21`, the T/C was 96 % of control (dose: 3.0 mg/kg/injection, schedule: Q01DX015 (ip), vehicle: carboxymethylcellulose (CMC)); 103 % of control (dose: 6.0 mg/kg/injection, schedule: Q01DX015 (ip), vehicle: carboxymethylcellulose (CMC)); 97 % of control (dose: 12.0 mg/kg/injection, schedule: Q01DX015 (ip), vehicle: carboxymethylcellulose (CMC)); 106 % of control (dose: 25.0 mg/kg/injection, schedule: Q01DX015 (ip), vehicle: carboxymethylcellulose (CMC)); 103 % of control (dose: 50.0 mg/kg/injection, schedule: Q01DX015 (ip), vehicle: carboxymethylcellulose (CMC)); 107 % of control (dose: 62.5 mg/kg/injection, schedule: Q01DX015 (ip), vehicle: carboxymethylcellulose (CMC)).
On to `O=C1CCCCc2ccc([N+](=O)[O-])cc21`, for which the T/C runs as follows: (dose: 50.0 mg/kg/injection, schedule: Q01DX001 (ip), vehicle: other) 86 % of control; (dose: 100.0 mg/kg/injection, schedule: Q01DX001 (ip), vehicle: other) 98 % of control; (dose: 200.0 mg/kg/injection, schedule: Q01DX001 (ip), vehicle: other) 96 % of control; (dose: 400.0 mg/kg/injection, schedule: Q01DX001 (ip), vehicle: other) 88 % of control.
Consider `O=C(C=C(C(F)(F)F)C(F)(F)F)/C=C/c1ccccc1`, for which the T/C (dose: 1.0 mg/kg/injection, schedule: Q01DX009 (ip), vehicle: other) was 97 % of control; the T/C (dose: 2.0 mg/kg/injection, schedule: Q01DX009 (ip), vehicle: other) was 109 % of control; the T/C (dose: 2.5 mg/kg/injection, schedule: Q04DX003 (ip), vehicle: other) was 97 % of control; the T/C (dose: 3.13 mg/kg/injection, schedule: Q01DX009 (ip), vehicle: other) was 102 % of control; the T/C (dose: 4.0 mg/kg/injection, schedule: Q01DX009 (ip), vehicle: other) is 97 % of control; the T/C (dose: 5.0 mg/kg/injection, schedule: Q04DX003 (ip), vehicle: other) is 97 % of control. Also, the T/C reads like this: (dose: 10.0 mg/kg/injection, schedule: Q04DX003 (ip), vehicle: other) 92 % of control; (dose: 12.5 mg/kg/injection, schedule: Q04DX003 (ip), vehicle: other) 88 % of control.
For the molecule `O=C1OC(=O)C23CCC(CC2)C2CCC13CC2`, the T/C is 97 % of control (dose: 100.0 mg/kg/injection, schedule: Q01DX009 (ip), vehicle: saline); 110 % of control under setting [11]; 98 % of control (dose: 200.0 mg/kg/injection, schedule: Q01DX009 (ip), vehicle: saline); 110 % of control under setting [12]; 93 % of control (dose: 400.0 mg/kg/injection, schedule: Q01DX009 (ip), vehicle: saline); 109 % of control under setting [13].
Take `CC(=O)OC1CCC2C3CCC4=CC(=O)C(C(O)(C(F)(F)F)C(F)(F)F)CC4(C)C3CCC12C` (stereo unspecified): the T/C is, setting by setting: (dose: 100.0 mg/kg/injection, schedule: Q01DX001 (sc), vehicle: steriod suspending solution) 106 % of control; (dose: 200.0 mg/kg/injection, schedule: Q01DX001 (sc), vehicle: steriod suspending solution) 101 % of control; (dose: 400.0 mg/kg/injection, schedule: Q01DX001 (sc), vehicle: steriod suspending solution) 101 % of control.
